Activity calls are given as the source filed them. No cut-off for these calls is given here.
Tested on: NUGC
Experiment: Cytotoxicity against human NUGC cells at 10 uM
Type: functional, cell-based

| SMILES | Activity |
| --- | --- |
| C#CC(O)/C=C/CCCCCCCCC/C=C\CCCCCCCCC/C=C/C(O)C#C (configuration not stated) | Active |
| C#CC(O)/C=C/CCCCCCCCCCCCC#CCCCCCCCCCCC#CC#CCO (configuration not stated) | Active |
